#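 1) Cells in 96-well plates. 2) Compound, 48 h, 5 concentrations. 3) Linear interpolation between surrounding doses. 4) Unreached endpoint = highest concentration. GI50: concentration for 50% inhibition of growth.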 Calls of active or inactive are those of the source. Rule as the data show it: active = GI50 up to about 1.1 µM and inactive = higher.
# Key:
# Assay in all cases: NCI anticancer screen, dose series, 48 h
# UACC-62 = system: UACC-62
# SNB-75 = system: SNB-75
# CAKI-1 = system: CAKI-1
# HL-60 = system: HL-60
# UACC-257 = system: UACC-257
# TK-10 = system: TK-10
# SF-268 = system: SF-268
# SK-MEL-28 = system: SK-MEL-28
# IGROV-1 = system: IGROV-1
# EKVX = system: EKVX
# MOLT-4 = system: MOLT-4
# OVCAR-5 = system: OVCAR-5
# OVCAR-8 = system: OVCAR-8
# U-251 = system: U-251
# HCT-15 = system: HCT-15
SMILES,GI50 (UACC-62),GI50 (SNB-75),GI50 (CAKI-1),GI50 (HL-60),GI50 (UACC-257),GI50 (TK-10),GI50 (SF-268),GI50 (SK-MEL-28),GI50 (IGROV-1),GI50 (EKVX),GI50 (MOLT-4),GI50 (OVCAR-5),GI50 (OVCAR-8),GI50 (U-251),GI50 (HCT-15)
COC(=O)C1=CO[C@@H](OC2CC(CO)C(O)C(O)C2O)[C@@H]2[C@@H](C)[C@@H](OC(=O)/C=C/c3ccccc3)[C@@H](O)[C@H]12.COC(=O)C1=CO[C@@H](OC2CC(CO)C(O)C(O)C2O)[C@@H]2[C@@H](C)[C@@H](OC(=O)c3ccccc3)[C@@H](O)[C@H]12 (stereo not given in full),> 100 µM (inactive),> 100 µM (inactive),> 100 µM (inactive),> 100 µM (inactive),> 100 µM (inactive),> 100 µM (inactive),> 100 µM (inactive),> 100 µM (inactive),> 100 µM (inactive),> 100 µM (inactive),> 100 µM (inactive),> 100 µM (inactive),> 100 µM (inactive),> 100 µM (inactive),
COc1ccccc1NC(=O)C1=C(C)NC(C)=C(C(=O)Nc2ccccc2OC)C1c1ccc(N(C)C)cc1,,30.8 µM (inactive),23.2 µM (inactive),15.8 µM (inactive),27.9 µM (inactive),34.8 µM (inactive),24.5 µM (inactive),22.6 µM (inactive),33.4 µM (inactive),27.4 µM (inactive),18.8 µM (inactive),39.2 µM (inactive),24 µM (inactive),30.4 µM (inactive),
O=C(Cc1cc[n+]([O-])cc1)C(=O)Nc1cc(Cl)c(Cl)cc1Cl,> 100 µM (inactive),77.1 µM (inactive),,> 100 µM (inactive),> 100 µM (inactive),> 100 µM (inactive),> 100 µM (inactive),> 100 µM (inactive),> 100 µM (inactive),> 100 µM (inactive),> 100 µM (inactive),> 100 µM (inactive),> 100 µM (inactive),> 100 µM (inactive),> 100 µM
C[C@]12CCC(=O)C=C1CC[C@@H]1[C@@H]2[C@@H](O)C[C@@]2(C)[C@H]1CC[C@]2(O)C(=O)COC(=O)CCC1CCCC1 [HYDROCORTISONE CYPIONATE],> 100 µM (inactive),> 100 µM (inactive),87.5 µM (inactive),72.9 µM (inactive),> 100 µM (inactive),> 100 µM (inactive),> 100 µM (inactive),> 100 µM (inactive),> 100 µM (inactive),> 100 µM (inactive),> 100 µM (inactive),0.0881 µM (active),> 100 µM (inactive),> 100 µM (inactive),> 100 µM
Cc1ccccc1NC(=O)c1c(C)oc2c1C(=O)c1ccccc1C2=O,22 µM (inactive),39.7 µM (inactive),> 80.7 µM (inactive),19.8 µM (inactive),21.4 µM (inactive),> 100 µM (inactive),31.8 µM (inactive),27.5 µM (inactive),> 71.9 µM (inactive),> 72.6 µM (inactive),20.1 µM (inactive),> 100 µM (inactive),41.5 µM (inactive),7.89 µM (inactive),32.1 µM
CCOC(=O)C1=C(OC(OCC)C(C)[Se]c2ccccc2)CCC1 (stereo not given),15.2 µM (inactive),30.1 µM (inactive),51.1 µM (inactive),4.16 µM (inactive),39.7 µM (inactive),> 100 µM (inactive),13.3 µM (inactive),22.6 µM (inactive),26.4 µM (inactive),21.6 µM (inactive),15.9 µM (inactive),51.2 µM (inactive),16 µM (inactive),6.78 µM (inactive),17.5 µM
O=C1C=C(Nc2ccc(S(=O)(=O)Nc3ncccn3)cc2)c2ccccc2C1=O,17.9 µM (inactive),25.1 µM (inactive),32.1 µM (inactive),25.4 µM (inactive),20.1 µM (inactive),37.4 µM (inactive),28.5 µM (inactive),26 µM (inactive),26.5 µM (inactive),24.7 µM (inactive),48.5 µM (inactive),19.5 µM (inactive),20.2 µM (inactive),17.6 µM (inactive),22.5 µM
NC(=O)N/N=C/C(/C=N/NC(N)=O)[N+](=O)[O-],> 100 µM (inactive),> 100 µM (inactive),> 100 µM (inactive),> 100 µM (inactive),> 100 µM (inactive),> 100 µM (inactive),> 100 µM (inactive),> 100 µM (inactive),> 100 µM (inactive),> 100 µM (inactive),,> 100 µM (inactive),,,
Cc1ccccc1/N=N/C(C(=O)c1ccccc1)C(=O)c1ccccc1,20.9 µM (inactive),19.1 µM (inactive),34.1 µM (inactive),11.9 µM (inactive),26.7 µM (inactive),44.8 µM (inactive),23.3 µM (inactive),24 µM (inactive),44.2 µM (inactive),25.2 µM (inactive),13.4 µM (inactive),31.1 µM (inactive),31.8 µM (inactive),16 µM (inactive),17.1 µM
CCOC(=O)Oc1ccc2[nH]c3c(C)cc(N)c(C)c3c2c1,,> 100 µM (inactive),> 100 µM (inactive),55.5 µM (inactive),> 100 µM (inactive),> 100 µM (inactive),> 100 µM (inactive),> 100 µM (inactive),,> 100 µM (inactive),78.9 µM (inactive),> 100 µM (inactive),> 100 µM (inactive),,> 100 µM
CCCNC1=C(C(=O)OCC)C(=O)CO1,> 100 µM (inactive),> 100 µM (inactive),> 100 µM (inactive),> 100 µM (inactive),> 100 µM (inactive),> 100 µM (inactive),> 100 µM (inactive),> 100 µM (inactive),> 100 µM (inactive),> 100 µM (inactive),> 100 µM (inactive),> 100 µM (inactive),> 100 µM (inactive),> 100 µM (inactive),> 100 µM
CCCN(CCCC(NC(C)=O)C(=O)NCc1ccccc1)C(=O)NCCCl (stereo not given),> 100 µM (inactive),> 100 µM (inactive),> 100 µM (inactive),> 100 µM (inactive),> 100 µM (inactive),> 100 µM (inactive),> 100 µM (inactive),> 100 µM (inactive),> 100 µM (inactive),> 100 µM (inactive),> 100 µM (inactive),,> 100 µM (inactive),> 100 µM (inactive),> 100 µM
CC1(c2ccc[n+](Cc3ccccc3)c2)OCCO1,> 100 µM (inactive),> 100 µM (inactive),> 100 µM (inactive),> 100 µM (inactive),> 100 µM (inactive),> 100 µM (inactive),,,> 100 µM (inactive),> 100 µM (inactive),> 100 µM (inactive),> 100 µM (inactive),> 100 µM (inactive),> 100 µM (inactive),> 100 µM
CC(=O)OC1CC2C(C)(C)C(=O)C=C[C@]2(C)C2CCC3(C)C(=CC(=O)C3c3ccoc3)[C@]12C (stereo not given in full),13 µM (inactive),12.5 µM (inactive),24.7 µM (inactive),14.3 µM (inactive),17.4 µM (inactive),15.7 µM (inactive),15.6 µM (inactive),15.9 µM (inactive),16.6 µM (inactive),15.7 µM (inactive),13.2 µM (inactive),22.4 µM (inactive),16.7 µM (inactive),,11.7 µM

# Reference: ChEMBL document CHEMBL1201862, “PubChem BioAssay data set” (2004)
